Among the data in patent US20260226073A1 (AURIGENE ONCOLOGY LIMITED, priority 2023, published 2026) are IC50 and EC50 values, retold here.

For test [1], the target named is T1, human recombinant CBL-b (human Biotin CBL-b recombinant protein a.a. 39-426) (Homo sapiens, UniProt Q13191).
T1 construct: human Biotin CBL-b recombinant protein a.a; 39-426; Biotin (biotinylated); made in house
The test is described as follows: Biochemical assay for CBL-b inhibition (ligand displacement TR-FRET). The class given is binding. The conditions noted are these: 50 nM CBL-b, 0.3 μM Bodipy FL-Probe, read-out: IC50 (CBL-b inhibition, group). The essentials:
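Ligand-displacement TR-FRET: 0.3 μM Bodipy FL probe competes with compound for 50 nM biotin-CBL-b (aa 39-426) after a 60 min RT compound pre-incubation; terbium-streptavidin detection, 60 min each step. Dose-response sigmoidal fitting gave IC50 and % maximum inhibition.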
A general note: TR-FRET usually uses a lanthanide donor and a delayed reading to cut background.

The subject of test [2] is NFAT signaling pathway in Jurkat NFAT reporter cells. The test is described as follows: Jurkat NFAT reporter assay. The class given is cell-based. The conditions noted are these: Homo sapiens, 30 min with compound, then soluble anti-human CD3/CD28 antibody for 6 hours, luciferase readout, read-out: EC50 (Group). The essentials: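 Results are expressed as fold change relative to stimulated, inhibitor-free cells. Stimulation was 6 h with soluble anti-human CD3/CD28 antibody after a 30-min exposure of 1×10^5 NFAT-RE luciferase Jurkat reporter cells per well to the Cbl-b inhibitor; signal read by Bio-Glo bioluminescence.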
(In a reporter assay the amount or activity of a reporter protein is the signal.)

The test system of test [3] is human PBMCs stimulated with anti-CD3/CD28 Dynabeads. The test is described as follows: Human PBMC cytokine release assay (IL-2 by ELISA). The class given is cell-based. The conditions noted are these: Dynabeads CD3/CD28 48 hours, IL-2 ELISA, fold change over baseline, read-out: EC50 (human PBMC cytokine release, group). On the procedure:
Peripheral blood mononuclear cells (PBMC) were isolated from healthy human donor using Histopaque (Sigma). The Cbl-inhibitor was added to 1×10^5 cells per well and the plate was incubated for 30 minutes at 37° C. in 5% CO2 at different concentrations with a final DMSO concentration of <0.5%. Following incubation with the Cbl-b inhibitor, human PBMCs were stimulated with Dynabeads™ Human T-Activator CD3/CD28 (Thermo Fisher Scientific) for 48 hours. Cell free supernatant were collected after end of incubation and were analyzed for cytokine secretion, including IL-2 by ELISA (R&D Systems). Readouts were reported as fold change over baseline. Here, baseline was the measurement obtained from human PBMCs stimulated with Dynabeads™ Human T-Activator CD3/CD28, where the cells were not incubated with a Cbl-b inhibitor.

T1 sequence (Q13191 39-426): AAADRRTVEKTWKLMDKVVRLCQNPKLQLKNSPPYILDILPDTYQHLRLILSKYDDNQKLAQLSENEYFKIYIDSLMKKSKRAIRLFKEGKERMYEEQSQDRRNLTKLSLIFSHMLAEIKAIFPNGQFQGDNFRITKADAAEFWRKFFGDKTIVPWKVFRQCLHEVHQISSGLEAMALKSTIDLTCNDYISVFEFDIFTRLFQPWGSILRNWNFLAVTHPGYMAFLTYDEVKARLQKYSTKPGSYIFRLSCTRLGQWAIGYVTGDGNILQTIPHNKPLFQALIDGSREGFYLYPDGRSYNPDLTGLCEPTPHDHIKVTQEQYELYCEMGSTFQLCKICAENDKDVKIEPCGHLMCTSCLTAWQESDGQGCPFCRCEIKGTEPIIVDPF

As to `Cn1cnnc1CC1(c2ccc3c(c2)C(=O)N(c2cc(CNCCC(F)(F)F)cc(C(F)(F)F)n2)C3)COC1` [Compound 25, 6-(3-((4-Methyl-4H-1,2,4-triazol-3-yl)methyl)oxetan-3-yl)-2-(6-(trifluoro-methyl)-4-(((3,3,3-trifluoropropyl)amino)methyl)pyridin-2-yl)isoindolin-1-one], the IC50 (commonly the concentration that inhibits the measured activity by half) in test [1] was less than 80 nM. The EC50 in test [2] was 300 to 1000 nM; in test [3], less than 5000 nM.

`Cc1nc(CN2CCC[C@H](C)C2)cc(N2Cc3ccc(C4(Cc5nncn5C)COC4)cc3C2=O)n1` [Compound 53, (S)-6-(3-((4-Methyl-4H-1,2,4-triazol-3-yl)methyl)oxetan-3-yl)-2-(2-methyl-6-((3-methylpiperidin-1-yl)methyl)pyrimidin-4-yl)isoindolin-1-one]: the IC50 in test [1] is less than 80 nM. Further, the EC50 in test [2] is 300 to 1000 nM; in test [3], less than 5000 nM.

For `C[C@H]1CCCN(Cc2cc(Cl)nc(N3Cc4ccc(C5(Cc6nncn6C)COC5)cc4C3=O)c2)C1` [Compound 40, (S)-2-(6-Chloro-4-((3-methylpiperidin-1-yl)methyl)pyridin-2-yl)-6-(3-((4-methyl-4H-1,2,4-triazol-3-yl)methyl)oxetan-3-yl)isoindolin-1-one], in test [1], the IC50 is less than 80 nM. The results for the EC50 in test [2] and in test [3] were less than 300 nM and less than 5000 nM, respectively.

As for `C[C@H]1CCCN(Cc2cc(Cl)cc(N3Cc4ccc(C5(Cc6nncn6C)COC5)cc4C3=O)c2)C1` [Compound 6, (S)-2-(3-Chloro-5-((3-methylpiperidin-1-yl)methyl)phenyl)-6-(3-((4-methyl-4H-1,2,4-triazol-3-yl)methyl)oxetan-3-yl)isoindolin-1-one], the IC50 in test [1] is less than 80 nM. Besides, the EC50 in test [2] is less than 300 nM; in test [3], less than 5000 nM.

Consider `C[C@H]1CCCN(Cc2cc(N3Cc4ccc(C5(Cc6nncn6C)COC5)cc4C3=O)nc(C(F)(F)F)c2)C1` [Compound 2], for which the IC50 in test [1] is less than 80 nM. The EC50 in test [2] is less than 300 nM; in test [3], less than 5000 nM.

In the case of `Cc1cc(CN2CCC[C@H](C)C2)cc(N2Cc3ccc(C4(Cc5nncn5C)COC4)cc3C2=O)c1` [Compound 4, (S)-6-(3-((4-Methyl-4H-1,2,4-triazol-3-yl)methyl)oxetan-3-yl)-2-(3-methyl-5-((3-methylpiperidin-1-yl)methyl)phenyl)isoindolin-1-one], in test [1], the IC50 is less than 80 nM. Moreover, the EC50 was less than 300 nM in test [2] and less than 5000 nM in test [3].

As to `Cc1cc(C(C)N2CCC[C@H](C)C2)cc(N2Cc3ccc(C4(Cc5nncn5C)COC4)cc3C2=O)c1` (stereo partly drawn) [Compound 12, 6-(3-((4-Methyl-4H-1,2,4-triazol-3-yl)methyl)oxetan-3-yl)-2-(3-methyl-5-(1-((S)-3-methylpiperidin-1-yl)ethyl)phenyl)isoindolin-1-one], the IC50 in test [1] is less than 80 nM. The EC50 in test [2] is 300 to 1000 nM; in test [3], less than 5000 nM.

For `Cn1cnnc1CC1(c2ccc3c(c2)C(=O)N(c2cc(CNCC4CC4)cc(C(F)(F)F)n2)C3)COC1` [Compound 80, 2-(4-(((Cyclopropylmethyl)amino)methyl)-6-(trifluoromethyl)pyridin-2-yl)-6-(3-((4-methyl-4H-1,2,4-triazol-3-yl)methyl)oxetan-3-yl)isoindolin-1-one], the IC50 in test [1] was less than 80 nM. Also, the EC50 in test [2] was less than 300 nM; in test [3], less than 5000 nM.

In the case of `C[C@@H]1C[C@H](C)CN(Cc2cc(N3Cc4ccc(C5(Cc6nncn6C)COC5)cc4C3=O)nc(C(F)(F)F)c2)C1` [Compound 39, 2-(4-(((3S,5R)-3,5-Dimethylpiperidin-1-yl)methyl)-6-(trifluoromethyl)pyridin-2-yl)-6-(3-((4-methyl-4H-1,2,4-triazol-3-yl)methyl)oxetan-3-yl)isoindolin-1-one], the IC50 in test [1] was less than 80 nM. The EC50 in test [2] is less than 300 nM; in test [3] it was less than 5000 nM.

In the case of `Cn1cnnc1CC1(c2ccc3c(c2)C(=O)N(c2cc(CNCC4CC4)cc(Cl)n2)C3)COC1` [Compound 57, 2-(6-Chloro-4-(((cyclopropylmethyl)amino)methyl)pyridin-2-yl)-6-(3-((4-methyl-4H-1,2,4-triazol-3-yl)methyl)oxetan-3-yl)isoindolin-1-one], the IC50 in test [1] is less than 80 nM. The values for the EC50 in test [2] and in test [3] were less than 300 nM and less than 5000 nM, respectively.

Turning to `CCc1cc(CN2CCC[C@H](C)C2)cc(N2Cc3ccc(C4(Cc5nncn5C)COC4)cc3C2=O)c1` [Compound 11, (S)-2-(3-Ethyl-5-((3-methylpiperidin-1-yl)methyl)phenyl)-6-(3-((4-methyl-4H-1,2,4-triazol-3-yl)methyl)oxetan-3-yl)isoindolin-1-one], in test [1], the IC50 lay in the range of 80 to 300 nM. In addition, the results for the EC50 in test [2] and in test [3] were 300 to 1000 nM and less than 5000 nM, respectively.

As to `C[C@@H]1C[C@H](C)CN(Cc2cc(Cl)nc(N3Cc4ccc(C5(Cc6nncn6C)COC5)cc4C3=O)c2)C1` [Compound 52, 2-(6-Chloro-4-(((3S,5R)-3,5-dimethylpiperidin-1-yl)methyl)pyridin-2-yl)-6-(3-((4-methyl-4H-1,2,4-triazol-3-yl)methyl)oxetan-3-yl)isoindolin-1-one], the IC50 in test [1] was less than 80 nM. The values for the EC50 in test [2] and in test [3] were less than 300 nM and less than 5000 nM, respectively.

On to `Cn1cnnc1CC1(c2ccc3c(c2)C(=O)N(c2cc(CN4CC5CCCC5C4)cc(C(F)(F)F)n2)C3)COC1` (stereo not drawn) [Compound 35, 2-(4-((Hexahydrocyclopenta[c]pyrrol-2(1H)-yl)methyl)-6-(trifluoromethyl)pyri-din-2-yl)-6-(3-((4-methyl-4H-1,2,4-triazol-3-yl)methyl)oxetan-3-yl)isoindolin-1-one], for which, in test [1], the IC50 fell in the range of 80 to 300 nM. The EC50 in test [2] is 300 to 1000 nM; in test [3], less than 5000 nM.

With `Cc1cc(CN2C[C@H](C)C[C@H](C)C2)cc(N2Cc3ccc(C4(Cc5nncn5C)COC4)cc3C2=O)n1` [Compound 78, 2-(4-(((3S,5R)-3,5-Dimethylpiperidin-1-yl)methyl)-6-methylpyridin-2-yl)-6-(3-((4-methyl-4H-1,2,4-triazol-3-yl)methyl)oxetan-3-yl)isoindolin-1-one], the IC50 in test [1] was less than 80 nM. Moreover, the EC50 was less than 300 nM in test [2] and less than 5000 nM in test [3].

Take `Cc1cc(CN2C[C@@H](C)C[C@H](C)C2)cc(N2Cc3ccc(C4(Cc5nncn5C)COC4)cc3C2=O)c1` [Compound 59, 2-(3-(((3S,5S)-3,5-Dimethylpiperidin-1-yl)methyl)-5-methylphenyl)-6-(3-((4-methyl-4H-1,2,4-triazol-3-yl)methyl)oxetan-3-yl)isoindolin-1-one]: in test [1], the half-inhibitory concentration (IC50) was 80 to 300 nM. The EC50 is 300 to 1000 nM in test [2] and less than 5000 nM in test [3].

With `Cc1cc(CN2C[C@H](C)C[C@H](C)C2)cc(N2Cc3ccc(C4(Cc5nncn5C)COC4)cc3C2=O)c1` [Compound 56, 2-(3-(((3S,5R)-3,5-Dimethylpiperidin-1-yl)methyl)-5-methylphenyl)-6-(3-((4-methyl-4H-1,2,4-triazol-3-yl)methyl)oxetan-3-yl)isoindolin-1-one], the IC50 in test [1] lay within 80 to 300 nM. Moreover, the EC50 in test [2] was less than 300 nM; in test [3] it was less than 5000 nM.
